Assay [1] concerns MCF7. The experiment in a line: Induction of apoptosis in human MCF7 cells assessed as late apoptotic cells at 15 uM after 72 hrs by AnnexinV-FITC staining based flow cytometry (reference value: 11.8 +/- 2.2 %). The format is functional.
The target in assay [2] is T1, Histone-lysine N-methyltransferase EHMT2 (Homo sapiens) (UniProt Q96KQ7).
T1 sequence (whole entry): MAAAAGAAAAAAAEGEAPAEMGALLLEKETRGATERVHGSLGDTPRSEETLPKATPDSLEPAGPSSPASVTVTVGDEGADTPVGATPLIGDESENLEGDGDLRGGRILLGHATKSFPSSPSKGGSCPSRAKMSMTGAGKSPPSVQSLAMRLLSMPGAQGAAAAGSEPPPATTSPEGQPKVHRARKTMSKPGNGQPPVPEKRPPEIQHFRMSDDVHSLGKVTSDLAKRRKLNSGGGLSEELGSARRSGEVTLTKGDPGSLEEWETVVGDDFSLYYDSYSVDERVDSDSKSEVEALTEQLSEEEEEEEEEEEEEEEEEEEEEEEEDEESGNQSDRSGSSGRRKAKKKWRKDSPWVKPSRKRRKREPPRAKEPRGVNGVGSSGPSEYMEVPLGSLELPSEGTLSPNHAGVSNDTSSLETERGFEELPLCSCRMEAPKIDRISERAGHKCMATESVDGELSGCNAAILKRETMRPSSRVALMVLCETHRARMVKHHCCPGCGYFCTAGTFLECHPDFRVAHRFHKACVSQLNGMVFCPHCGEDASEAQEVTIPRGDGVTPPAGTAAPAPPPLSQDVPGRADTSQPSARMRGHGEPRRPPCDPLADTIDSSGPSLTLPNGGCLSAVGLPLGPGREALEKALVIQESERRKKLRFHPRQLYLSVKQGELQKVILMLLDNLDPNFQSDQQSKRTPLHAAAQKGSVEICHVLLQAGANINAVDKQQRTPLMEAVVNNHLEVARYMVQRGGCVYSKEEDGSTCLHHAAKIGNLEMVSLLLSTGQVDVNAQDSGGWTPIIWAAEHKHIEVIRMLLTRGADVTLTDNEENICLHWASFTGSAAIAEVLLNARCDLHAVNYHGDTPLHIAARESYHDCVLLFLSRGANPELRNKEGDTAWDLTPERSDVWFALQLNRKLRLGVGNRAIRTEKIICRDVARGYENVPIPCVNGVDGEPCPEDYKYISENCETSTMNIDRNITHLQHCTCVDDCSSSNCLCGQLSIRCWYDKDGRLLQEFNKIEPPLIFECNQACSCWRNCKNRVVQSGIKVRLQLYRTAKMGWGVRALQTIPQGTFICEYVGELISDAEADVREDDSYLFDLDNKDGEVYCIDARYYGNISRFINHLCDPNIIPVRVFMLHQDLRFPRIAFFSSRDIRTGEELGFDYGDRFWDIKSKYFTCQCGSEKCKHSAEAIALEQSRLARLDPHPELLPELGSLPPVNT
The assay can be described thus: Inhibition of G9a in human MCF7 nuclear extracts assessed as reduction in H3K27 levels at 15 uM after 48 hrs. Type of assay: cell-based.

In assay [3] the test system is MSTO-211H. The assay can be described thus: Antiproliferative activity against human MSTO-211H cells after 48 to 72 hrs by MTT assay. The format is functional, cell-based.
For assay [4], the system named is MCF7. The experiment in a line: Induction of apoptosis in human MCF7 cells assessed as late apoptotic cells at 15 uM after 48 hrs by AnnexinV-FITC staining based flow cytometry (reference value: 7.6 +/- 5.9 %). Type of assay: functional.
The test system of assay [5] is MCF7. The experiment in a line: Induction of apoptosis in human MCF7 cells assessed as necrotic cells at 15 uM after 72 hrs by AnnexinV-FITC staining based flow cytometry (reference value: 7.6 +/- 1 %). The format is functional. Background: Flow cytometry measures light scatter and fluorescence of single cells or particles in a stream.
Assay [6] can be described thus: Antiproliferative activity against human H460 cells after 48 to 72 hrs by MTT assay. Conditions: NCI-H460. Type of assay: functional, cell-based. (In general: Tetrazolium dyes change colour on reduction, which living cells bring about.)
The subject of assay [7] is MCF7. The experiment in a line: Induction of apoptosis in human MCF7 cells assessed as early apoptotic cells at 15 uM after 48 hrs by AnnexinV-FITC staining based flow cytometry (reference value: 7.8 +/- 5.3 %). The format is functional.
Assay [8] is described as follows: Antiproliferative activity against human Ovarian cancer LA#110 cells assessed as cell survival at 20 uM after 72 hrs by MTT assay relative to control. The format is functional. Conditions: read-out: Survival.
Assay [9] has as its system MCF7. The experiment in a line: Inhibition of DNA methylation in human MCF7 cells assessed as decrease in methylation of RARbeta DNA by qPCR method. Type of assay: cell-based. Background: In qPCR the cycle at which signal appears reflects the starting amount.
Assay [10] deals with MCF7. The assay can be described thus: Cell cycle arrest in human MCF7 cells assessed as accumulation at G0/G1 phase at 15 uM after 24 hrs by flow cytometry relative to control. Type of assay: functional.
For assay [11], the target named is T1, Histone-lysine N-methyltransferase EHMT2 (Homo sapiens). The assay can be described thus: Inhibition of G9a in human MCF7 nuclear extracts assessed as reduction in H3K9 levels at 15 uM after 48 hrs. The format is cell-based.
Assay [12] concerns MCF7. The assay can be described thus: Induction of apoptosis in human MCF7 cells assessed as early apoptotic cells at 15 uM after 72 hrs by AnnexinV-FITC staining based flow cytometry (reference value: 20.1 +/- 7.3 %). Type of assay: functional.
The test system of assay [13] is MCF7. The assay can be described thus: Induction of apoptosis in human MCF7 cells assessed as viable cells at 15 uM after 72 hrs by AnnexinV-FITC staining based flow cytometry (reference value: 60.5 +/- 6 %). Type of assay: functional. Conditions: MCF7, 72 h, read-out: Activity.
The subject of assay [14] is MCF7. The assay can be described thus: Induction of apoptosis in human MCF7 cells assessed as necrotic cells at 15 uM after 48 hrs by AnnexinV-FITC staining based flow cytometry (reference value: 10.2 +/- 1.9 %). Type of assay: functional.
Assay [15] can be described thus: Antiproliferative activity against human Ovarian cancer DC#83 cells assessed as cell survival at 20 uM after 72 hrs by MTT assay relative to control. Conditions: read-out: Survival. The format is functional.
A short description of assay [16]: Antiproliferative activity against human Ovarian cancer DC#110 cells assessed as cell survival at 20 uM after 72 hrs by MTT assay relative to control. The format is functional. To be noted: read-out: Survival.
The subject of assay [17] is MCF7. The experiment in a line: Inhibition of DNA methylation in human MCF7 cells assessed as reduction in H3K27me3 levels at 15 uM after 48 hrs by Western blot analysis. The format is cell-based.
For assay [18], the system named is MCF7. The assay can be described thus: Induction of apoptosis in human MCF7 cells assessed as viable cells at 15 uM after 48 hrs by AnnexinV-FITC staining based flow cytometry (reference value: 74.4 +/- 9.1 %). Type of assay: functional. To be noted: MCF7, 48 h, read-out: Activity.
Assay [19] is described as follows: Antiproliferative activity against human Ovarian cancer LA#83 cells assessed as cell survival at 20 uM after 72 hrs by MTT assay relative to control. Type of assay: functional. Conditions: read-out: Survival.
The subject of assay [20] is MCF7. The experiment in a line: Inhibition of DNA methylation in human MCF7 cells assessed as decrease in 5-methylcytosine level by ELISA. Type of assay: cell-based.
Assay [21] deals with MCF7. The assay can be described thus: Inhibition of DNA methylation in human MCF7 cells assessed as reduction in H3K9me3 levels at 15 uM after 48 hrs by Western blot analysis. Type of assay: cell-based.
The subject of assay [22] is MCF7. The assay can be described thus: Antiproliferative activity against human MCF7 cells after 48 to 72 hrs by MTT assay. The format is functional, cell-based.
Assay [23] relates to MCF7. The experiment in a line: Cell cycle arrest in human MCF7 cells assessed as accumulation at G2/M phase at 15 uM after 72 hrs by flow cytometry relative to control. The format is functional.

Molecules are shown by their SMILES. Active and inactive are the calls of the source. No cut-off for these calls is given here.

As to `CCCCN1C(=O)[C@H]2Cc3c(n(CO)c4ccccc34)CN2C1=O`, the Activity in [1] is 15.2%; in assay [4] it was 12.1%; in assay [5] it was 7.2%; in [7], 8.3%; in assay [10], 3%; in [12], 25.5%. Also, the Activity in assay [14] is given as 8.5%. Also, the inhibition entry in assay [2], in assay [9], in assay [11] and in assay [20] was “Active” each time. For the same molecule, the values for the IC50 in assay [3], in assay [6] and in assay [22] were greater than 20 µM, greater than 20 µM and 30.7 µM, respectively. Also, the viability at 20 µM worked out at 56% in assay [8], 101% in assay [15], 82.2% in assay [16] and 67.8% in assay [19]. Moreover, the viability at 15 µM was 52.1% in assay [13] and 71.1% in assay [18]. Also, the results for the inhibition in assay [17] and in assay [21] were 20% and 40%, respectively.
`CCCCN1C(=O)[C@@H]2Cc3c(n(CO)c4ccccc34)CN2C1=O`: the Activity is on record as 13.7% in assay [1]; 13.5% in [4]; 7.1% in [5]; 13.1% in [7]; 3% in assay [10]; 20.6% in assay [12]. In assay [14], the Activity came out at 4.1%. The inhibition entry in assay [2], in [9], in assay [11] and in [20] was “Active” throughout. Besides, the IC50 is greater than 20 µM in assay [3], greater than 20 µM in assay [6] and 38.7 µM in assay [22]. Besides, the viability at 20 µM in assay [8] came out at 71.8%; in [15], 96%; in assay [16] it was 93.8%; in assay [19] it was 91.8%. For the same molecule, the viability at 15 µM is 58.6% in assay [13] and 69.4% in assay [18]. The values for the inhibition in assay [17] and in assay [21] were 40% and 50%, respectively.
On to `Cc1nc(Nc2ncc(C(=O)Nc3c(C)cccc3Cl)s2)cc(N2CCN(CCO)CC2)n1` [DASATINIB], for which the viability at 20 µM stood at 20.5% in [8], 73.1% in [15], 58.7% in [16] and 38.3% in [19].
The matching figures for `C#Cc1cccc(Nc2ncnc3cc(OCCOC)c(OCCOC)cc23)c1` [ERLOTINIB]: 27.7%, 94.5%, 75.3% and 24.7%.
As to `CN1C(=O)[C@@]23C[C@]4([C@]56C[C@@]78SS[C@@](CO)(C(=O)N7[C@H]5Nc5ccccc56)N(C)C8=O)c5ccccc5N[C@@H]4N2C(=O)[C@]1(CO)SS3` [CHAETOCIN], the viability at 20 µM in assay [8] was -2.63%; in assay [15], 67.8%; in [16], -4.22%; in assay [19], -3.25%. For the same molecule, in assay [9], the inhibition entry is “Active”.
As to `CCN(CC)CCNC(=O)c1c(C)[nH]c(/C=C2\C(=O)Nc3ccc(F)cc32)c1C` [SUNITINIB], the viability at 20 µM was determined as 2.6% in [8], 73.7% in assay [15], 54.2% in assay [16] and 9.8% in assay [19].
Regarding `CN1CCN(C(=O)[C@H]2Cc3c([nH]c4ccccc34)[C@@H]3N(C)c4ccccc4C(=O)N23)CC1`, the Activity in assay [1] was 15.8%; in assay [4] it was 12.2%; in assay [5] it was 6.2%; in [7] it was 13.6%; in assay [12], 23.3%; in assay [14], 9.6%. Further, the inhibition result in assay [2], in assay [9], in [11] and in assay [20] was “Active” throughout. Besides, the results for the IC50 in assay [3], in assay [6] and in [22] were 6.6 µM, 9.05 µM and 34.8 µM, respectively. Further, the viability at 20 µM in assay [8] is 56.7%; in assay [15], 84.2%; in assay [16], 87.7%; in [19] it was 77.3%. Also, the viability at 15 µM in [13] was 54.7%; in assay [18], 64.6%. In addition, the inhibition in assay [17] worked out at 30%; in assay [21] it was 70%. In assay [23], the result was Active.
`C#CCN(C)Cc1ccccc1` [PARGYLINE]: the viability at 20 µM was determined as 85% in [8], 96.7% in assay [15], 59.1% in assay [16] and 77.7% in assay [19].
Taken in the same sequence, the figures for `N[C@@H]1C[C@H]1c1ccccc1.N[C@H]1C[C@@H]1c1ccccc1` [TRANYLCYPROMINE] were 60.6%, 102%, 93.6% and 77.5%.
Regarding `Cc1ccc(-c2cn3c(n2)sc2ccccc23)cc1`, the Activity in assay [1] was determined as 21%; in [4], 11.8%; in assay [5], 4.8%; in assay [7], 18.7%; in [12], 29%; in [14], 8.1%. For the same molecule, the inhibition entry in [2], in assay [9], in [17], in assay [20] and in assay [21] was “inactive” in each case. In addition, the IC50 in assay [3] was greater than 20 µM; in assay [6], greater than 20 µM; in assay [22], 30.4 µM. Moreover, the viability at 20 µM in [8] stood at 77.1%; in assay [15] it was 90.3%; in assay [16], 80.1%; in [19], 70.2%. In assay [11], the inhibition entry is “Active”. Also, the viability at 15 µM in [13] was determined as 45.2%; in [18], 61.4%. In assay [23], the result was Active.

In general, inhibition refers to the share of the control response that was lost under treatment. The term IC50 denotes the point on the concentration scale where inhibition reaches its midpoint. Read a low IC50 as greater potency.
